Reference: US9133148B2, “Carbamate compounds and of making and using same” (Abide Therapeutics, Inc., priority 2012, dated 2015)

How the values were obtained:
Format in all cases: biochemical
[1] = biological target: T1, MAGL (Mus musculus (Mouse), UniProt O35678); test: Competitive ABPP, % inhibition at 1 uM, MAGL
Experimental: (§1) In Vitro Competitive Activity-Based Protein Profiling.
(§2) Proteomes (mouse brain membrane fraction or cell lysates) ([…], 1.0 mg/mL total protein concentration) were preincubated with varying concentrations of inhibitors at 37° C. After 30 min, FP-Rh (1.0 μL, 50 μM in DMSO) was added and the mixture was incubated for another 30 min at 37° C. Reactions were quenched with SDS loading buffer (50 μL—4×) and run on SDS-PAGE.

[2] = biological target: T2, ABHD6 (Mus musculus (Mouse), UniProt Q8R2Y0); test: Competitive ABPP, % inhibition at 1 uM, ABHD6
Experimental: as §1, §2

[3] = biological target: T3, FAAH (Mus musculus (Mouse), UniProt O08914); test: Competitive ABPP, % inhibition at 1 uM, FAAH
Experimental: as §1
as §2, with “SDS-PAGE. Following gel imaging, serine hydrolase activity was determined by measuring fluorescent intensity of gel bands corresponding to MAGL, ABHD6 and FAAH using ImageJ 1.43u software.” for “SDS-PAGE.”

[4] = biological target: T1, MAGL; test: In vitro competitive activity-based protein profiling (FP-Rh), mouse MAGL; details: mouse brain membrane proteome
Experimental: as §1, §2

[5] = biological target: T2, ABHD6; test: In vitro competitive activity-based protein profiling (FP-Rh), mouse ABHD6; details: mouse brain membrane proteome
Experimental: as §1, §2

[6] = biological target: T3, FAAH; test: In vitro competitive activity-based protein profiling (FP-Rh), mouse FAAH; details: mouse brain membrane proteome
Experimental: as §1, §2

T2 sequence (Q8R2Y0 whole entry): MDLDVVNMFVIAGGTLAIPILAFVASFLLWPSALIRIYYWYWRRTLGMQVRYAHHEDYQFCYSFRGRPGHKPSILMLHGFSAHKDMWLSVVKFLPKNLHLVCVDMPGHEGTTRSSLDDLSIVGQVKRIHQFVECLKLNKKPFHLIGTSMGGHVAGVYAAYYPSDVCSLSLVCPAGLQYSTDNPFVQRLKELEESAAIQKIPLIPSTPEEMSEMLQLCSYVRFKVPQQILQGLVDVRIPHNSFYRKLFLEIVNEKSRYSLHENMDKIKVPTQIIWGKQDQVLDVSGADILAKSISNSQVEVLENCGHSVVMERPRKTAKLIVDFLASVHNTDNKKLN
T1 sequence (O35678 whole entry): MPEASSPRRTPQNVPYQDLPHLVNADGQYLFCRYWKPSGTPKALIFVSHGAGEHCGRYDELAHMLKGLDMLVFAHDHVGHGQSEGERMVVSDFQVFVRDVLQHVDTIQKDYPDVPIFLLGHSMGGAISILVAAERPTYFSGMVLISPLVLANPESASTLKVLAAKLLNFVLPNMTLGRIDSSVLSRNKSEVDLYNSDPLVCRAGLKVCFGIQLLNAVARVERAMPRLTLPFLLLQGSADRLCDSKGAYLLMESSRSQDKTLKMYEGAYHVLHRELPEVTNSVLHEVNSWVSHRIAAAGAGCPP
T3 sequence (O08914 whole entry): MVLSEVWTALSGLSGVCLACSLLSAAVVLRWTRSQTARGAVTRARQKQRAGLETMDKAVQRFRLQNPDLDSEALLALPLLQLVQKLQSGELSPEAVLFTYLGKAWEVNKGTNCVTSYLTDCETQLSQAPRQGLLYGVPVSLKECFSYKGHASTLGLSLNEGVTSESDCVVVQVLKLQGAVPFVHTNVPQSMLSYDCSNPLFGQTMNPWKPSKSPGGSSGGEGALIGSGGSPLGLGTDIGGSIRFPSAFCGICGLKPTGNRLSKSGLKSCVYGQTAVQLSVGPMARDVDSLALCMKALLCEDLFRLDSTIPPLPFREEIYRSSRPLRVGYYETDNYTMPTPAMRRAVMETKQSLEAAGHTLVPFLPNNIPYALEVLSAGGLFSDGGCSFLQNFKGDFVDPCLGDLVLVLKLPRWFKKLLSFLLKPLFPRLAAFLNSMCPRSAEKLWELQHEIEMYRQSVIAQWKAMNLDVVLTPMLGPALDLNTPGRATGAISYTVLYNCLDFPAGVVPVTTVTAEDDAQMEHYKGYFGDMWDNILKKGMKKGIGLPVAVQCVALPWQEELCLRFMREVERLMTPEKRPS

SMILES	IC50 ([4]; competitive ABPP (Table 7))	IC50 ([5]; competitive ABPP (Table 7))	IC50 ([6]; competitive ABPP (Table 7))	other results
CC1CN(C(=O)OC(C(F)(F)F)C(F)(F)F)CCN1C(c1ccc(Cl)cc1)c1ccc(Cl)cc1 (stereo not drawn) [Example 2h, 1,1,1,3,3,3-hexafluoropropan-2-yl 4-[bis(4-chlorophenyl)methyl]-3-methylpiperazine-1-carboxylate]				inhibition at 1 µM [1]: 25 to 75%; inhibition at 1 µM [2]: 25 to 75%; inhibition at 1 µM [3]: < 25%
Cn1ncc2cc(C(c3ccc4c(cnn4C)c3)N3CCN(C(=O)OC(C(F)(F)F)C(F)(F)F)CC3)ccc21 [Example 2k, 1,1,1,3,3,3-hexafluoropropan-2-yl 4-(bis(1-methyl-1H-indazol-5-yl)methyl)piperazine-1-carboxylate]				inhibition at 1 µM [3]: < 25%
O=C(OC(C(F)(F)F)C(F)(F)F)N1CCN(Cc2c(Cl)cccc2N2CCOCC2)CC1 [Example 9ac, 1,1,1,3,3,3-hexafluoropropan-2-yl 4-[[2-chloro-6-(morpholin-4-yl)phenyl]methyl]piperazine-1-carboxylate]				inhibition at 1 µM [3]: < 25%
O=C(OC(C(F)(F)F)C(F)(F)F)N1CCN(Cc2ccc(Cl)cc2-n2cc(Cl)cn2)CC1 [Example 9ai, 1,1,1,3,3,3-hexafluoropropan-2-yl 4-(4-chloro-2-(4-chloro-1H-pyrazol-1-yl)benzyl)piperazine-1-carboxylate]	< 100 nM	100 to 1000 nM	> 10000 nM	
O=C(OC(C(F)(F)F)C(F)(F)F)N1CCN(Cc2ccc(N3CCCC3)cc2OC(F)(F)F)CC1 [Example 9ap, 1,1,1,3,3,3-hexafluoropropan-2-yl 4-(4-(pyrrolidin-1-yl)-2-(trifluoromethoxy)benzyl)piperazine-1-carboxylate]	100 to 1000 nM	> 1000 nM	> 10000 nM	
CC(C)c1cc(N2CCCC2)ccc1CN1CCN(C(=O)OC(C(F)(F)F)C(F)(F)F)CC1 [Example 9au, 1,1,1,3,3,3-hexafluoropropan-2-yl 4-(2-isopropyl-4-(pyrrolidin-1-yl)benzyl)piperazine-1-carboxylate]	> 1000 nM	> 1000 nM	> 10000 nM	
O=C(OC(C(F)(F)F)C(F)(F)F)N1CCN(Cc2ccc(-n3cccn3)c(F)c2)CC1 [Example 9az, 1,1,1,3,3,3-hexafluoropropan-2-yl 4-(3-fluoro-4-(1H-pyrazol-1-yl)benzyl)piperazine-1-carboxylate]	100 to 1000 nM	100 to 1000 nM	> 10000 nM	
O=C(OC(C(F)(F)F)C(F)(F)F)N1CCN(Cc2ccc(Br)cc2Oc2ccccc2)CC1 [Example 9b, 1,1,1,3,3,3-hexafluoropropan-2-yl 4-(4-bromo-2-phenoxybenzyl)piperazine-1-carboxylate]				IC50 ([4]; competitive ABPP): < 100 nM; IC50 ([5]; competitive ABPP): 100 to 1000 nM; IC50 ([6]; competitive ABPP): > 10000 nM
CC(=O)N[C@@H]1CCN(c2cc(Cl)ccc2CN2CCN(C(=O)OC(C(F)(F)F)C(F)(F)F)CC2)C1 [Example 9ba, (R)-1,1,1,3,3,3-hexafluoropropan-2-yl 4-(2-(3-acetamidopyrrolidin-1-yl)-4-chlorobenzyl)piperazine-1-carboxylate]	< 100 nM	> 1000 nM	> 10000 nM	
O=C(OC(C(F)(F)F)C(F)(F)F)N1CCN(Cc2cccc(Cl)c2C(=O)N2CCCC2)CC1 [Example 9bg, 1,1,1,3,3,3-hexafluoropropan-2-yl 4-(3-chloro-2-(pyrrolidine-1-carbonyl)benzyl)piperazine-1-carboxylate]	100 to 1000 nM	> 1000 nM	> 10000 nM	
O=C(OC(C(F)(F)F)C(F)(F)F)N1CCN(Cc2ccc(Cl)cc2)CC1 [Example 9o, 1,1,1,3,3,3-hexafluoropropan-2-yl 4-(4-chlorobenzyl)piperazine-1-carboxylate]				inhibition at 1 µM [3]: < 25%
COc1ccc(CN2CCN(C(=O)OC(C(F)(F)F)C(F)(F)F)CC2)cc1 [Example 9v, 1,1,1,3,3,3-hexafluoropropan-2-yl 4-(4-methoxybenzyl)piperazine-1-carboxylate]	< 100 nM	100 to 1000 nM	> 6250 nM	
CC(C)n1cc(CN2CCN(C(=O)OC(C(F)(F)F)C(F)(F)F)CC2)c(-c2ccccc2)n1 [Example 10h, 1,1,1,3,3,3-hexafluoropropan-2-yl 4-[[3-phenyl-1-(propan-2-yl)-1H-pyrazol-4-yl]methyl]piperazine-1-carboxylate]	100 to 1000 nM	100 to 1000 nM	> 10000 nM	
O=C(OC(C(F)(F)F)C(F)(F)F)N1CCN(Cc2ccc(-c3ccccc3)cc2F)CC1 [Example 11p, 1,1,1,3,3,3-hexafluoropropan-2-yl 4-[(2-fluoro-4-phenylphenyl)methyl]piperazine-1-carboxylate]	< 100 nM	> 1000 nM	> 10000 nM	
CN(C)C(=O)c1cc(-c2ccccc2)ccc1CN1CCN(C(=O)OC(C(F)(F)F)C(F)(F)F)CC1 [Example 11x, 1,1,1,3,3,3-hexafluoropropan-2-yl 4-[[2-(dimethylcarbamoyl)-4-phenylphenyl]methyl]piperazine-1-carboxylate]	100 to 1000 nM	> 1000 nM	> 10000 nM	

Continued, in another order:

IC50 ([4]; competitive ABPP (Table 7))	IC50 ([5]; competitive ABPP (Table 7))	IC50 ([6]; competitive ABPP (Table 7))	SMILES	other results
100 to 1000 nM	> 1000 nM	> 10000 nM	O=C(OC(C(F)(F)F)C(F)(F)F)N1CCN(Cc2cccc(F)c2N2CCCC2)CC1 [Example 9as, 1,1,1,3,3,3-hexafluoropropan-2-yl 4-(3-fluoro-2-(pyrrolidin-1-yl)benzyl)piperazine-1-carboxylate]	
100 to 1000 nM	> 1000 nM	> 10000 nM	CC(=O)N1CCN(c2cc(Cl)ccc2CN2CCN(C(=O)OC(C(F)(F)F)C(F)(F)F)CC2)CC1 [Example 9aw, 1,1,1,3,3,3-hexafluoropropan-2-yl 4-(2-(4-acetylpiperazin-1-yl)-4-chlorobenzyl)piperazine-1-carboxylate]	
< 100 nM	> 1000 nM	> 10000 nM	CC(=O)N[C@H]1CCN(c2cc(Cl)ccc2CN2CCN(C(=O)OC(C(F)(F)F)C(F)(F)F)CC2)C1 [Example 9bb, (S)-1,1,1,3,3,3-hexafluoropropan-2-yl 4-(2-(3-acetamidopyrrolidin-1-yl)-4-chlorobenzyl)piperazine-1-carboxylate]	
100 to 1000 nM	100 to 1000 nM	> 10000 nM	O=C(OC(C(F)(F)F)C(F)(F)F)N1CCN(Cc2ccc(C(=O)N3CCC3)cc2Cl)CC1 [Example 9be, 1,1,1,3,3,3-hexafluoropropan-2-yl 4-(4-(azetidine-1-carbonyl)-2-chlorobenzyl)piperazine-1-carboxylate]	
100 to 1000 nM	100 to 1000 nM	> 5000 nM	O=C(OC(C(F)(F)F)C(F)(F)F)N1CCN(Cc2ccc(N3CCOCC3)cc2Cl)CC1 [Example 9e, 1,1,1,3,3,3-hexafluoropropan-2-yl 4-(2-chloro-4-morpholinobenzyl)piperazine-1-carboxylate]	
100 to 1000 nM	100 to 1000 nM	> 10000 nM	O=C(OC(C(F)(F)F)C(F)(F)F)N1CCN(Cc2ccc(N3CCOCC3)cc2)CC1 [Example 9f, 1,1,1,3,3,3-hexafluoropropan-2-yl 4-(4-morpholinobenzyl)piperazine-1-carboxylate]	
100 to 1000 nM	> 1000 nM	> 10000 nM	O=C(OC(C(F)(F)F)C(F)(F)F)N1CCN(Cc2ccc(N3CCCC3)cc2)CC1 [Example 9g, 1,1,1,3,3,3-hexafluoropropan-2-yl 4-(4-(pyrrolidin-1-yl)benzyl)piperazine-1-carboxylate]	
100 to 1000 nM	100 to 1000 nM	> 10000 nM	O=C(OC(C(F)(F)F)C(F)(F)F)N1CCN(Cc2ccc(N3CCOCC3)c(Cl)c2)CC1 [Example 9h, 1,1,1,3,3,3-hexafluoropropan-2-yl 4-(3-chloro-4-morpholinobenzyl)piperazine-1-carboxylate]	
100 to 1000 nM	> 1000 nM	> 6250 nM	Cc1cc(N2CCCC2)ccc1CN1CCN(C(=O)OC(C(F)(F)F)C(F)(F)F)CC1 [Example 9u, 1,1,1,3,3,3-hexafluoropropan-2-yl 4-(2-methyl-4-(pyrrolidin-1-yl)benzyl)piperazine-1-carboxylate]	
< 100 nM	> 1000 nM	> 1250 nM	Cc1ccc(CN2CCN(C(=O)OC(C(F)(F)F)C(F)(F)F)CC2)cc1 [Example 9w, 1,1,1,3,3,3-hexafluoropropan-2-yl 4-(4-methylbenzyl)piperazine-1-carboxylate]	
< 100 nM	> 1000 nM	> 10000 nM	COc1cc(-c2ccccc2)ccc1CN1CCN(C(=O)OC(C(F)(F)F)C(F)(F)F)CC1 [Example 11j, 1,1,1,3,3,3-hexafluoropropan-2-yl 4-[(2-methoxy-4-phenylphenyl)methyl]piperazine-1-carboxylate]	
100 to 1000 nM	> 1000 nM	> 10000 nM	Cc1cc(-c2ccccc2)ccc1CN1CCN(C(=O)OC(C(F)(F)F)C(F)(F)F)CC1 [Example 11q, 1,1,1,3,3,3-hexafluoropropan-2-yl 4-[(2-methyl-4-phenylphenyl)methyl]piperazine-1-carboxylate]	
